Laboratory results from patent US20240238263A1, “USE OF PYRIDONE DERIVATIVE CONTAINING HETEROATOM CYCLOBUTANE SUBSTITUENT” (GUANGZHOU JOYO PHARMATECH CO., LTD, priority 2021, published 2024).

System: dorsal skin full-thickness excisional wound in STZ-induced diabetic rats
Experiment: Dorsal skin full-thickness excisional wound model in STZ-induced diabetic rats, wound closure
Type: in vivo, Wistar rats
Description: In this study, 50 STZ-diabetic rats were used to simulate Type 1 diabetes, with an additional 8 normal rats serving as the control group (normal blank gel control group (without STZ)). The method for modeling the STZ-diabetic rat is as follows: Male Wistar rats were weighed and then intraperitoneally injected with Streptozotocin (STZ, freshly prepared, dissolved in 0.1 M citrate buffer (pH 4.5)) at a dosage of 80 mg/kg. STZ was intraperitoneally injected twice in total, with a 5-day interval between injections. Three days after the second STZ injection, rats with fasting blood glucose levels greater than 250 mg/dl were defined as diabetic model rats. Studies on skin wound healing could be conducted from 1 to 8 weeks after the successful establishment of the diabetic rat model. • 2.
In diabetic model rats, the dorsal skin was marked with a stamp, and full-thickness excision was performed to create a standardized wound area. The day of the full-thickness skin excision surgery was designated as Day 1 of the experiment. The specified surgical procedure was as follows: • 1) Prior to surgery, animals were anesthetized with 2-5% isoflurane. The back was shaved and prepared, and the surgical area was disinfected with iodophor, followed by de-iodination with 75% alcohol. • 2) All animals were marked on the skin of their backs using a stamp with a circular pattern. A circular full-thickness skin excision was performed along the midline of the rat's back, extending down to the fascial layer. […] The surgical site was essentially consistent for each animal; • 3) Post-surgery, every 8-12 hours, 8 mg/kg of bupivacaine (diluted to 0.25% with physiological saline) was injected subcutaneously at the wound site. All animals were closely monitored until they regained consciousness. Animals were monitored daily, and if symptoms of pain persisted, they would continue to receive pain medication. • 4. Drug administration:
All experimental groups were topically administered. Before administering the medication, wounds were rinsed with physiological saline and any residual moisture was absorbed with a sterile cotton swab. Then, the medication was applied. For the GeneTime group, the solution was evenly applied to the wound and surrounding skin, with the dressing changed twice a day. For the other groups, the gel samples were applied from the periphery toward the center, focusing first on the edges of the lesion before covering inward, with the dressing changed twice a day. Medication was applied immediately after the wound model was created, and each group was continuously administered for 18 days. For specific administration information, see Table 2. • 5. Efficacy assessment • 1) Blood glucose monitoring: Blood samples were obtained from all animals via tail vein sampling, and fasting blood glucose levels were measured on days 0/9/18 using a glucometer. • 2) Evaluation of wound closure:
After anesthetizing the rats with isoflurane, a ruler was placed near the wound as a reference scale. Using a digital camera, photos of the wound on the rat's back were taken on days 1, 4, 8, 11, 14, and 18, maintaining a constant focus and pixel condition. The obtained images were processed by software to measure the wound area. • 6. Statistical analysis
Experimental data were expressed as the mean±standard error of the mean (mean±S.E.M.). Statistical analyses were conducted using appropriate methods in software such as Graphpad Prism or SPSS. A p-value of less than 0.05 is considered to indicate a significant difference. • 7. Results • 1) Fasting blood glucose
Remaining Open Wound Area %=Open Wound Area (O)/Initial Wound Area (I)*100%

Q: What does the source list for `CC1(c2ccc(=O)n(-c3ccsc3)c2)COC1` [compound I]?
A: Remaining open wound area (0.3% compound I gel, 50 mg topical twice daily, Day 1 (day of surgery)): 100% ±; Remaining open wound area (0.3% compound I gel, 50 mg topical twice daily, Day 4): 94.82% ±; Remaining open wound area (0.3% compound I gel, 50 mg topical twice daily, Day 8): 54% ±; Remaining open wound area (0.3% compound I gel, 50 mg topical twice daily, Day 11): 24.5% ±; Remaining open wound area (0.3% compound I gel, 50 mg topical twice daily, Day 14): 7.75% ±; Remaining open wound area (0.3% compound I gel, 50 mg topical twice daily, Day 18): 1.22% ±; Remaining open wound area (1% compound I gel, topical twice daily, Day 1 (day of surgery)): 100% ±; Remaining open wound area (1% compound I gel, topical twice daily, Day 4): 94.25% ±; Remaining open wound area (1% compound I gel, topical twice daily, Day 8): 55.4% ±; Remaining open wound area (1% compound I gel, topical twice daily, Day 14): 5.47% ±; Remaining open wound area (1% compound I gel, topical twice daily, Day 18): 0.78% ±; Change of remaining open wound area % vs model blank gel control group (1% compound I gel, after 14 days of topical administration, no statistical difference): tended to decrease; Change of remaining open wound area % vs model blank gel control group (1% compound I gel, day 11 after administration, P<0.01): significantly reduced; Remaining open wound area (3% compound I gel, topical twice daily, Day 1 (day of surgery)): 100% ±; Remaining open wound area (3% compound I gel, topical twice daily, Day 4): 93.96% ±; Remaining open wound area (3% compound I gel, topical twice daily, Day 8): 56.92% ±; Remaining open wound area (3% compound I gel, topical twice daily, Day 14): 6% ±; Remaining open wound area (3% compound I gel, topical twice daily, Day 18): 2.01% ±; Change of remaining open wound area % vs model blank gel control group (3% compound I gel, after 14 days of topical administration, no statistical difference): tended to decrease; Change of remaining open wound area % vs model blank gel control group (3% compound I gel, day 11 after administration, P<0.05): significantly reduced
